In US20250388592A1 (REMYND N.V., priority 2022, published 2025):

System: M17_3TAU(P301L) cells
Experiment: TAU-induced cytotoxicity (LDH) in the neuroblastoma tauopathy model
Type: cell-based
Conditions: Homo sapiens, 168 h, inhibition of TAU-induced toxicity, 7 days retinoic acid differentiation, LDH readout
Summary of the method: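 Stably transfected BE-M17 cells expressing human TAU-P301L, seeded in serum-free detection medium, then differentiated with 2.5 μM RA (added in equal volume) for 7 days at 37° C/5% CO2 to induce TAU aggregation. Cytotoxicity = supernatant LDH increase over total LDH; EC50 from dose-dependent inhibition curves.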

| Compound | EC50 [nM] |
| --- | --- |
| O=C(NC1CCC(F)(F)CC1)N1CC2(CN(Cc3ccc(F)cn3)C2)C1 [Cpd B205] | 263 |
| O=C(NC1CCC(F)(F)CC1)N1CC2(CN(Cc3ncccc3C(F)(F)F)C2)C1 [Cpd B206] | 31 |
| O=C(NC1CCC(F)(F)CC1)N1CC2(CN(Cc3ccccc3C(F)(F)F)C2)C1 [Cpd B207] | 17.8 |
| O=C(NC1CCC(F)(F)CC1)N1CC2(CN(Cc3c(F)cccc3C(F)(F)F)C2)C1 [Cpd B208] | 252 |
| Cn1cc(Cl)c(CN2CC3(C2)CN(C(=O)NC2CCC(F)(F)CC2)C3)n1 [Cpd B209] | 15.2 |
| Cc1csc(CN2CC3(C2)CN(C(=O)NC2CCC(F)(F)CC2)C3)c1 [Cpd B210] | 14.6 |
| Cc1cccnc1CN1CC2(C1)CN(S(=O)(=O)CCc1ccccc1)C2 [Cpd B211, 2-((3-methylpyridin-2-yl)methyl)-6-((phenethyl)sulfonyl)-2,6-diazaspiro[3.3]heptane] | 94.8 |
| Cc1cccnc1CN1CC2(C1)CN(S(=O)(=O)Cc1cccc(C(F)(F)F)c1)C2 [Cpd B212] | 4.94 |
| Cc1cccnc1CN1CC2(C1)CN(S(=O)(=O)Cc1ccc(F)cc1)C2 [Cpd B213] | 14.6 |
| Cc1nc(CN2CC3(C2)CN(S(=O)(=O)Cc2cccc(C(F)(F)F)c2)C3)cs1 [Cpd B215] | 3.73 |
| O=S(=O)(Cc1ccc(C(F)(F)F)cc1)N1CC2(CN(Cc3ccc(F)cc3)C2)C1 [Cpd B216] | 5.69 |
| O=S(=O)(c1ccc(OC(F)(F)F)cc1)N1CC2(CN(Cc3ccc(F)cc3)C2)C1 [Cpd B217] | 0.46 |
| O=S(=O)(Cc1cccc(Cl)c1)N1CC2(CN(Cc3ccc(F)cc3)C2)C1 [Cpd B218] | 16.8 |
| COc1cccc(CN2CC3(C2)CN(S(=O)(=O)c2ccc(OC(F)(F)F)cc2)C3)c1 [Cpd B219] | 8.34 |
| COc1cccc(CN2CC3(C2)CN(S(=O)(=O)c2ccc(C(F)(F)F)cc2)C3)c1 [Cpd B220] | 33.9 |
| COc1cccc(CN2CC3(C2)CN(S(=O)(=O)Cc2ccc(F)cc2)C3)c1 [Cpd B221] | 18.6 |
| COc1cccc(CN2CC3(C2)CN(S(=O)(=O)Cc2ccc(C(F)(F)F)cc2)C3)c1 [Cpd B224] | 12.2 |
| COc1cccc(CN2CC3(CN(Cc4ccc(Cl)cc4)C3)C2)c1 [Cpd B225, 2-(4-chlorobenzyl)-6-(3-methoxybenzyl)-2,6-diazaspiro[3.3]heptane] | 5.27 |
| COc1cccc(CN2CC3(CN(Cc4ccc(F)cc4)C3)C2)c1 [Cpd B226] | 1.16 |

| Compound | EC50 [nM] |
| --- | --- |
| Fc1ccc(Cc2nsc(NC3CC4(CC(NCc5ccccc5)C4)C3)n2)cc1 (stereo not shown) [Cpd B301, N-benzyl-N′-(3-(4-fluorobenzyl)-1,2,4-thiadiazol-5-yl) spiro[3.3]heptane-2,6-diamine] | 11.2 |
| CN(Cc1ccccc1)C1CC2(CC(Nc3nc(Cc4ccc(F)cc4)ns3)C2)C1 (stereo not shown) [Cpd B302, N-benzyl-N′-(3-(4-fluorobenzyl)-1,2,4-thiadiazol-5-yl)-N-methyl spiro[3.3]heptane-2,6-diamine] | 0.9 |
| Clc1ccc(CNC2CC3(C2)CC(Nc2nc(Cc4ccc(Cl)cc4)ns2)C3)cc1 (stereo not shown) [Cpd B303, N-(4-chlorobenzyl)-N′-(3-(4-chlorobenzyl)-1,2,4-thiadiazol-5-yl) spiro[3.3]heptane-2,6-diamine] | 11.8 |
| FC(F)(F)c1ccc(CNC2CC3(C2)CC(Nc2nc(Cc4ccc(Cl)cc4)ns2)C3)cc1 (stereo not shown) [Cpd B304, N-(3-(4-chlorobenzyl)-1,2,4-thiadiazol-5-yl)-N′-(4-(trifluoromethyl)benzyl) spiro[3.3]heptane-2,6-diamine] | 31.5 |
| COc1ccccc1CNC1CC2(C1)CC(Nc1nc(Cc3ccc(Cl)cc3)ns1)C2 (stereo not shown) [Cpd B305, N-(3-(4-chlorobenzyl)-1,2,4-thiadiazol-5-yl)-N′-(2-methoxybenzyl) spiro[3.3]heptane-2,6-diamine] | 2.2 |
| Clc1ccc(Cc2nsc(NC3CC4(CC(NCc5ccc(Cl)c(Cl)c5)C4)C3)n2)cc1 (stereo not shown) [Cpd B306, N-(3-(4-chlorobenzyl)-1,2,4-thiadiazol-5-yl)-N′-(3,4-dichlorobenzyl) spiro[3.3]heptane-2,6-diamine] | 35.7 |
| Clc1ccc(Cc2nsc(NC3CC4(CC(NCc5ccc(Cl)cc5Cl)C4)C3)n2)cc1 (stereo not shown) [Cpd B307, N-(3-(4-chlorobenzyl)-1,2,4-thiadiazol-5-yl)-N′-(2,4-dichlorobenzyl) spiro[3.3]heptane-2,6-diamine] | 1.3 |
| Clc1ccc(Cc2nsc(NC3CC4(CC(NCc5cc(Cl)ccc5Cl)C4)C3)n2)cc1 (stereo not shown) [Cpd B308, N-(3-(4-chlorobenzyl)-1,2,4-thiadiazol-5-yl)-N′-(2,5-dichlorobenzyl) spiro[3.3]heptane-2,6-diamine] | 3.8 |
| Cc1cc(CNC2CC3(C2)CC(Nc2nc(Cc4ccc(Cl)cc4)ns2)C3)ccc1F (stereo not shown) [Cpd B309, N-(3-(4-chlorobenzyl)-1,2,4-thiadiazol-5-yl)-N′-(4-fluoro-3-methylbenzyl) spiro[3.3]heptane-2,6-diamine] | 12 |
| COc1cccc(CNC2CC3(C2)CC(Nc2nc(Cc4ccc(Cl)cc4)ns2)C3)c1 (stereo not shown) [Cpd B310, N-(3-(4-chlorobenzyl)-1,2,4-thiadiazol-5-yl)-N′-(3-methoxybenzyl) spiro[3.3]heptane-2,6-diamine] | 4.6 |
| COc1cccc(OC)c1CNC1CC2(C1)CC(Nc1nc(Cc3ccc(Cl)cc3)ns1)C2 (stereo not shown) [Cpd B311, N-(3-(4-chlorobenzyl)-1,2,4-thiadiazol-5-yl)-N′-(2,6-dimethoxybenzyl) spiro[3.3]heptane-2,6-diamine] | 4 |
| Fc1ccccc1CNC1CC2(C1)CC(Nc1nc(Cc3ccc(Cl)cc3)ns1)C2 (stereo not shown) [Cpd B312, N-(3-(4-chlorobenzyl)-1,2,4-thiadiazol-5-yl)-N′-(2-fluorobenzyl) spiro[3.3]heptane-2,6-diamine] | 2.2 |
| COc1ccc(CNC2CC3(C2)CC(Nc2nc(Cc4ccc(Cl)cc4)ns2)C3)cc1F (stereo not shown) [Cpd B313, N-(3-(4-chlorobenzyl)-1,2,4-thiadiazol-5-yl)-N′-(3-fluoro-4-methoxybenzyl) spiro[3.3]heptane-2,6-diamine] | 2.9 |
| COc1cccc(CNC2CC3(C2)CC(Nc2nc(Cc4ccc(Cl)cc4)ns2)C3)c1OC (stereo not shown) [Cpd B314, N-(3-(4-chlorobenzyl)-1,2,4-thiadiazol-5-yl)-N′-(2,3-dimethoxybenzyl) spiro[3.3]heptane-2,6-diamine] | 3 |
| CCOc1ccccc1CNC1CC2(C1)CC(Nc1nc(Cc3ccc(Cl)cc3)ns1)C2 (stereo not shown) [Cpd B315, N-(3-(4-chlorobenzyl)-1,2,4-thiadiazol-5-yl)-N′-(2-ethoxybenzyl) spiro[3.3]heptane-2,6-diamine] | 4 |
| COc1ccc(CNC2CC3(C2)CC(Nc2nc(Cc4ccc(Cl)cc4)ns2)C3)c(OC)c1 (stereo not shown) [Cpd B316, N-(3-(4-chlorobenzyl)-1,2,4-thiadiazol-5-yl)-N′-(2,4-dimethoxybenzyl) spiro[3.3]heptane-2,6-diamine] | 3.1 |
| COc1ccc(CNC2CC3(C2)CC(Nc2nc(Cc4ccc(Cl)cc4)ns2)C3)cc1OC (stereo not shown) [Cpd B317, N-(3-(4-chlorobenzyl)-1,2,4-thiadiazol-5-yl)-N′-(3,4-dimethoxybenzyl) spiro[3.3]heptane-2,6-diamine] | 41 |
| COc1ccc(CNC2CC3(C2)CC(Nc2nc(Cc4ccc(Cl)cc4)ns2)C3)cc1 (stereo not shown) [Cpd B318, N-(3-(4-chlorobenzyl)-1,2,4-thiadiazol-5-yl)-N′-(4-methoxybenzyl) spiro[3.3]heptane-2,6-diamine] | 10.1 |
